Measurements reported in patent publication US20080085246A1, “Use of Eugenol Acetate as an Agent Against Bad Breath” (SYMRISE GMBH & CO. KG, priority 2004, published 2008).

Tests used:
[1] = system: liquid medium inoculated with fresh morning saliva; assay: In vitro test for reduction of bad breath (inoculated medium smelled by a panel of testers)
Pseudomonas aeruginosa = assay: Minimum inhibitory concentration, series dilution test; assay type: cell-based
Experimental: (§1) The minimum inhibitory concentration (MIC) of eugenol acetate was determined in the series dilution test against various bacteria.

Porphyromonas gingivalis = assay: as above; assay type: cell-based
Experimental: as §1

Escherichia coli = assay: as above; assay type: cell-based
Experimental: as §1

Staphylococcus aureus = assay: as above; assay type: cell-based
Experimental: as §1

Fusobacterium nucleatum = assay: as above; assay type: cell-based
Experimental: as §1

Prevotella intermedia = assay: as above; assay type: cell-based
Experimental: as §1

Streptococcus mutans = assay: as above; assay type: cell-based
Experimental: as §1

[2] = system: total number of germs in the oral saliva samples; assay: Total number of germs in oral saliva samples; assay type: cell-based; conditions: 1,000 ppm

MIC (Pseudomonas aeruginosa): > 1000 µg/mL | MIC (Porphyromonas gingivalis): 1000 µg/mL | MIC (Escherichia coli): > 1000 µg/mL | MIC (Staphylococcus aureus): > 1000 µg/mL | MIC (Fusobacterium nucleatum): 500 µg/mL | MIC (Prevotella intermedia): 500 µg/mL | MIC (Streptococcus mutans): > 1000 µg/mL
Compound: C=CCc1ccc(OC(C)=O)c(OC)c1 [eugenol acetate, 4-allyl-2-methoxyphenyl acetate]
smell after the incubation time ([1]; 0.01% added to inoculated samples, 37 °C for some days): no smell | smell at sensory evaluation ([1]; 0.05% added to the inoculated medium only one hour before the sensory evaluation): unpleasant mixed smell of bad breath and a weak eugenol acetate note | minimum active concentration ([1]; inoculated samples, no smell after incubation): 0.01% | smell after the incubation time ([1]; significantly lower concentrations than 0.01%): a changed intrinsic smell or a mixed smell was perceptible in some cases | Type (Pseudomonas aeruginosa): no action up to 1,000 ppm | Type (Escherichia coli): no action up to 1,000 ppm | Type (Staphylococcus aureus): no action up to 1,000 ppm | Type (Fusobacterium nucleatum; 500 ppm): bactericidal action | Type (Prevotella intermedia; 500 ppm): bactericidal action | Type (Streptococcus mutans): no action up to 1,000 ppm | reduction in respect of the total number of germs [2]: no significant reduction
